Reference: US20140335184A1, “NANOPARTICLE ASSEMBLY, PREPARATION THEREOF, AND ACTIVE MATERIAL DELIVERING COMPOSITE COMPRISING THE SAME” (priority 2012, published 2014)

Test: Measurement of decrease in fluorescence of drug delivering composite
Format: physicochemical
Details: measured as a function of time, FIGS. 16A and 16B
From the text: FIGS. 16A and 16B are graphs illustrating a measurement of a decrease in a fluorescence of the drug delivering composite prepared in Example 6.
FIG. 16A is a graph illustrating the measurement of a change in fluorescence of a doxorubicin solution according to time, and FIG. 16B is a graph illustrating the measurement of changes in fluorescence of the doxorubicin solution and the drug delivering composite according to an embodiment. […] However, a reduction in fluorescence of doxorubicin alone was not observed when measured as a function of time.

- Change in fluorescence: not observed
SMILES: COc1cccc2c1C(=O)c1c(O)c3c(c(O)c1C2=O)C[C@@](O)(C(=O)CO)C[C@@H]3O[C@H]1C[C@H](N)[C@H](O)[C@H](C)O1 [doxorubicin]
